Tested on: undifferentiated 3T3-L1 cell
Experiment: Anti-adipogenesis assay on undifferentiated 3T3-L1 cell
Assay type: cell-based
From the text: The major component of weight gain is the increase and accumulation of fat through adipogenesis process. Adipogenesis is characterized by increase of both fat cell number and fat cell size. The weight loss composition of the present invention, banaba extracts, and some active components which were isolated from banaba have shown strong activity through an inhibitory activity on adipocyte differentiation to block fat cell synthesis to achieve the effect on bodyweight control and body fat loss. The following is the list of the results of anti-adipogenesis assay (Table 4).

[1] = concentration level 0.002% (w/w)
[2] = concentration level 0.004% (w/w)
[3] = concentration level 0.05% (w/w)
[4] = concentration level 0.10% (w/w)

Row | Compound | Percent of inhibitory [1] [%] | Percent of inhibitory [2] [%] | Percent of inhibitory [3] [%] | Percent of inhibitory [4] [%]
1 | COc1c(O)cc2c(=O)oc3c(O)c(O)cc4c(=O)oc1c2c34 [3-O-methylellegic acid] | 97 | 98 |  | 
2 | O=C(O[C@@H]1COC(=O)c2cc(O)c(O)c(O)c2-c2c(cc(O)c(O)c2O)C(=O)O[C@H]1[C@@H]1OC(=O)c2cc(O)c(O)c(O)c2-c2c(O)c(O)c(O)c3c2C(=O)O[C@H]1[C@@H]3O)c1cc(O)c(O)c(O)c1 [Casuarinin] | 100 | 100 | 100 | 100
3 | Banasulin | 96 | 79 | 99 | 
4 | Lagerstroemin | 100 | 100 | 100 | 100
